{"source": "paper PMC11676762", "about": "“Control of Postharvest Green Mold in Citrus by the Antimicrobial Peptide BP15 and Its Lipopeptides” (Journal of Fungi, 2024)", "key": {"[1]": {"system": "P. digitatum", "settings": "against P. digitatum; cited from earlier work", "from_the_text": "Conidia generated by P. digitatum are disseminated to the surface of fruits via wind, rain, soil dust, and other media. Upon landing on the surface or wound of the fruit, these conidia promptly germinate, leading to fruit decay. […] In the present s ..."}, "[2]": {"system": "P. digitatum", "assay": "Fruit decay test, green mold on mandarins", "assay_type": "in vivo, Penicillium digitatum", "settings": "mean ± SD", "from_the_text": "This experiment followed the method of Zhou et al. with some adjustments. The effects of three peptides on the control of green mold in citrus in vivo were studied by measuring the incidence rate and spot diameters on the citrus fruit. Mandarins were purchased from a local supermarket and selected for uniform size, ripeness, and a lack of mechanical damage. The mandarins were soaked in 75% alcohol for 30 s and then in 1% NaClO for 30 s, followed by rinsing with sterile water and drying with sterile paper to remove excess surface water. A sterile needle was used to drill holes near the equator (about 3 mm deep), and each mandarin was inoculated with 10 µL of 100 μM concentrations of three peptide solutions and 1 × 10^5 CFU/mL P. digitatum suspension (v/v 1:1), compared with a mixture of equal parts sterile water and P. digitatum suspension. The mandarins were placed in a […] container with sterile wet paper towels in order to preserve their freshness. A humid environment was maintained in the container, and the fruit was stored at room temperature. The incidence rate and spot diameter of the mandarins were measured in accordance with the method of Zhang et al.. Each treatment group contained eight fruits, and each treatment was repeated three times."}, "[3]": {"system": "sheep red blood cells", "settings": "test range, significantly lower than commercial prochloraz (p < 0.05), results not yet published"}, "[4]": {"system": "P. digitatum genomic DNA", "assay": "DNA binding gel retardation assay", "design": "species or system Penicillium digitatum", "settings": "peptide:DNA 1:1 (v/v), room temperature 30 min, 1% agarose gel", "description": "In accordance with Miao et al. with slight adjustments, the gel retardation effect was analyzed. The P. digitatum DNA was extracted according to the operation steps of the TIANGEN plant genome DNA extraction kit. The agarose gel electrophoresis utilized a 1% agarose concentration. […] Electrophoresis was run at 110 V for 25 min, followed by the removal of the rubber plate and placement in the Tanon-2500B (Tanon Science and Technology Co., Ltd., Shanghai, China) for visualization."}, "[5]": {"system": "P. digitatum", "settings": "for MFC: 50 μL from mycelium-free well plated on PDA, no pathogen growth; for MFC / MIC: 25 °C; for MIC: lowest peptide concentration completely inhibiting growth for 48 h, spores 1 × 10^4 CFU/mL, 5% PDB, triplicate", "description": "The experiment was adapted from the method of Jia et al.. A 180 μL spore suspension (1 × 10^4 CFU/mL), containing 5% potato dextrose broth (PDB) by volume, was mixed with 20 μL of peptide solution in a sterile 96-well microplate and thoroughly mixed. The final peptide concentrations were 0.78, 1.56, 3.12, 6.25, 12.5, 25, 50, and 100 μM, with sterile water as the control. The mixtures were cultured in an incubator at 25 °C for 48 h, and the light absorption at OD600nm was measured using an 800TS full-wavelength microplate reader (Bio Tek Instruments, Inc., Winooski, VT, USA). The minimum inhibitory concentration (MIC) was defined as the lowest peptide concentration completely inhibiting fungus growth for 48 h. Then, a 50 μL sample from the mycelium-free well was plated on PDA and left to culture at 25 °C for 48 h. The minimum fungicidal concentration (MFC) was the peptide concentration at which there was no pathogen growth after 48 h."}, "[6]": {"system": "P. digitatum mycelia", "assay": "Mycelial survival assay (MTT)", "assay_type": "cell-based, Penicillium digitatum", "settings": "100 μM peptide, 3 h at 25 °C, then MTT 16 h; mean of triplicate", "description": "The mycelial survival rate was determined according to by Weerden et al.. A spore suspension (5 × 10^4 CFU/mL) was prepared with 5% PDB and incubated for 24 h at 25 °C. […] The mixtures were cultured at 25 °C for 3 h before the addition of 10 μL of 3-(4,5-dimethylthiazol-2-yl)-2,5-diphenyltetrazolium bromide (MTT; 5 mg/mL; MACKLIN). The plates were then incubated in a dark environment for 16 h, followed by the addition of DMSO (100 μL)."}, "[7]": {"system": "P. digitatum mycelia", "assay": "Sytox Green fluorescence microscopy (membrane permeability)", "assay_type": "cell-based, Penicillium digitatum", "settings": "2 h, Sytox Green 0.2 μM", "description": "The experiment protocol was adapted from Li et al.. A spore suspension (10^5 CFU/mL) of 90 μL was prepared with 5% PDB and incubated for 24 h at 25 °C. Subsequently, the peptide solution was added to final concentrations of the MIC, the MFC, and 100 μM, and the mixtures were left for 2 h, with sterile water as the control. After incubation, Sytox Green (Molecular Probes; KeyGen Biotech Co., Nanjing, China) was added at 4 μM and thte final concentration was 0.2 μM and was incubated for 5 min in the dark. The treated samples were washed with sterile water, resuspended in 20% glycerol solution, and prepared and observed under a DM3000 fluorescence microscope (Leica, Weztlar, Germany)."}, "[8]": {"settings": "5 d, 100 μM peptide + spores (1:1), three replicates"}, "[9]": {"settings": "6 d, 100 μM peptide + spores (1:1), three replicates"}, "[10]": {"settings": "7 d, 100 μM peptide + spores (1:1), three replicates"}, "[11]": {"settings": "8 d, 100 μM peptide + spores (1:1), three replicates"}, "[12]": {"settings": "9 d, 100 μM peptide + spores (1:1), three replicates"}, "[13]": {"settings": "10 d, 100 μM peptide + spores (1:1), three replicates"}}, "note": "“And” between values parts separate entries of the source, which are not always exact repeats. Identical values can stand only once. Like-named read-outs stand apart in the source and are kept apart here. Marks after values point to notes of the source that are not given here."}
{"compound": "GHRKKWFW [PAF56, synthetic short cationic antimicrobial peptide (GHRKKWFW), literature comparator]", "values": [{"measurement": "MIC", "setting": "[1]", "result": 8, "unit": "µM"}]}
{"compound": "CCCCCCCCCCCC(=O)N[C@@H](CCCCN)C(=O)N[C@@H](CCCCN)C(=O)N[C@@H](CC(C)C)C(=O)N[C@@H](Cc1ccccc1)C(=O)N[C@@H](CCCCN)C(=O)N[C@@H](CCCCN)C(=O)N[C@H](C(=O)N[C@@H](CC(C)C)C(=O)N[C@@H](CCCCN)C(=O)N[C@H](C(=O)N[C@@H](CC(C)C)C(N)=O)C(C)C)[C@@H](C)CC", "note": "[LBP15]", "values": [{"measurement": "Spot Diameter", "setting": "[2]; [8]", "result": "10.80 ± 4.93 ^b mm"}, {"measurement": "Incidence Rate", "setting": "[2]; [9]", "result": "70.83 ± 19.09 ^b %"}, {"measurement": "Spot Diameter", "setting": "[2]; [9]", "result": "21.23 ± 4.46 ^b mm"}, {"measurement": "Incidence Rate", "setting": "[2]; [10]", "result": "80.83 ± 11.54 ^b %"}, {"measurement": "Spot Diameter", "setting": "[2]; [10]", "result": "34.00 ± 10.39 ^b mm"}, {"measurement": "Incidence Rate", "setting": "[2]; [11]", "result": "80.83 ± 11.54 ^b %"}, {"measurement": "Spot Diameter", "setting": "[2]; [11]", "result": "45.60 ± 13.19 ^b mm"}, {"measurement": "Incidence Rate", "setting": "[2]; [12]", "result": "80.83 ± 11.54 ^b %"}, {"measurement": "Spot Diameter", "setting": "[2]; [12]", "result": "54.08 ± 12.44 ^b mm"}, {"measurement": "Incidence Rate", "setting": "[2]; [13]", "result": "87.50% and 87.50 ± 0.00 ^a %"}, {"measurement": "Spot Diameter", "setting": "[2]; [13]", "result": "69.6 ± 8.37 ^b mm"}, {"measurement": "hemolytic activity", "setting": "[3]", "result": "low hemolysis"}, {"measurement": "peptide concentration at which DNA bands were no longer visible", "setting": "[4]", "result": 50, "unit": "µM"}, {"measurement": "MFC", "setting": "[5]; 48 h", "result": 6.25, "unit": "µM"}, {"measurement": "inhibitory effect on P. digitatum growth", "setting": "[5]; at 0.78 and 1.56 μM, 48 h, OD600nm", "result": "No obvious inhibitory effect"}, {"measurement": "MIC", "setting": "[5]; OD600nm", "result": 3.12, "unit": "µM"}, {"measurement": "mycelial survival rate", "setting": "[6]", "result": 10.40, "unit": "%"}, {"measurement": "SG fluorescence in mycelia", "setting": "[7]; peptide at 100 μM", "result": "extensive continuous green fluorescence"}, {"measurement": "SG fluorescence in mycelia", "setting": "[7]; peptide at 2 MIC", "result": "enhanced fluorescence intensity and continuity"}, {"measurement": "SG fluorescence in mycelia", "setting": "[7]; peptide at MIC", "result": "weak green fluorescence"}]}
{"compound": "CCCCCC(=O)N[C@@H](CCCCN)C(=O)N[C@@H](CCCCN)C(=O)N[C@@H](CC(C)C)C(=O)N[C@@H](Cc1ccccc1)C(=O)N[C@@H](CCCCN)C(=O)N[C@@H](CCCCN)C(=O)N[C@H](C(=O)N[C@@H](CC(C)C)C(=O)N[C@@H](CCCCN)C(=O)N[C@H](C(=O)N[C@@H](CC(C)C)C(N)=O)C(C)C)[C@@H](C)CC", "note": "[HBP15]", "values": [{"measurement": "Spot Diameter", "setting": "[2]; [8]", "result": "1.41 ± 0.80 ^c mm"}, {"measurement": "Incidence Rate", "setting": "[2]; 5 d, 10 µL of 100 μM peptide + 1 × 10^5 CFU/mL spores (1:1), room temperature, three replicates of eight fruits", "result": "12.50 ± 0.00 ^c %"}, {"measurement": "Incidence Rate", "setting": "[2]; [9]", "result": "20.83 ± 7.22 ^c %"}, {"measurement": "Spot Diameter", "setting": "[2]; [9]", "result": "4.45 ± 0.80 ^c mm"}, {"measurement": "Incidence Rate", "setting": "[2]; [10]", "result": "37.50 ± 0.00 ^c %"}, {"measurement": "Spot Diameter", "setting": "[2]; [10]", "result": "9.76 ± 0.84 ^c mm"}, {"measurement": "Incidence Rate", "setting": "[2]; [11]", "result": "37.50 ± 0.00 ^c %"}, {"measurement": "Spot Diameter", "setting": "[2]; [11]", "result": "14.81 ± 1.19 ^c mm"}, {"measurement": "Incidence Rate", "setting": "[2]; [12]", "result": "37.50 ± 0.00 ^c %"}, {"measurement": "Spot Diameter", "setting": "[2]; [12]", "result": "19.72 ± 1.95 ^c mm"}, {"measurement": "Incidence Rate", "setting": "[2]; [13]", "result": "41.67 ± 7.22 ^b %"}, {"measurement": "Spot Diameter", "setting": "[2]; [13]", "result": "23.27 ± 3.61 ^c mm"}, {"measurement": "hemolytic activity", "setting": "[3]", "result": "low hemolysis"}, {"measurement": "peptide concentration at which DNA bands were no longer visible", "setting": "[4]", "result": 25, "unit": "µM"}, {"measurement": "MFC", "setting": "[5]; 48 h", "result": 6.25, "unit": "µM"}, {"measurement": "MIC", "setting": "[5]; OD600nm", "result": 3.12, "unit": "µM"}, {"measurement": "mycelial survival rate", "setting": "[6]", "result": 16.31, "unit": "%"}, {"measurement": "SG fluorescence in mycelia", "setting": "[7]; peptide at 100 μM", "result": "extensive continuous green fluorescence"}, {"measurement": "SG fluorescence in mycelia", "setting": "[7]; peptide at 2 MIC", "result": "enhanced fluorescence intensity and continuity"}, {"measurement": "SG fluorescence in mycelia", "setting": "[7]; peptide at MIC", "result": "no fluorescence"}]}
{"compound": "CC[C@H](C)[C@H](NC(=O)[C@H](CCCCN)NC(=O)[C@H](CCCCN)NC(=O)[C@H](Cc1ccccc1)NC(=O)[C@H](CC(C)C)NC(=O)[C@H](CCCCN)NC(=O)[C@@H](N)CCCCN)C(=O)N[C@@H](CC(C)C)C(=O)N[C@@H](CCCCN)C(=O)N[C@H](C(=O)N[C@@H](CC(C)C)C(N)=O)C(C)C", "note": "[BP15]", "values": [{"measurement": "hemolytic activity", "setting": "[3]", "result": "low hemolysis"}, {"measurement": "MFC", "setting": "[5]; 48 h", "result": 6.25, "unit": "µM"}, {"measurement": "MIC", "setting": "[5]; OD600nm", "result": 3.12, "unit": "µM"}]}
